The text below walks through data of patent publication US20050107447A1, “Novel lysophosphatidic acid receptor agonists and antagonists” (priority 2003, published 2005).

“Also recorded” adds a separate entry of the source.

For one assay, the target named is LPA1 (Mus musculus, UniProt P61793). Description: GTP[γ35S] binding, LPA1 transfected HEK293T (or RH7777) cell membranes. In kind it is biochemical. On the set-up: expressed in transfected cells; host or cells: HEK293T (transient, with G protein plasmids); some results from RH7777 rat hepatoma membranes transfected with LPA1 DNA only. The note with it: for EC50: agonist, GTP[γ35S] binding; for Potency at LPA1 relative to LPA: vs 1-oleoyl LPA. How it is done: (§1) The appropriate receptor plasmid DNA (encoding mouse LPA1, human LPA2 or human LPA3) was mixed with equal amounts of expression plasmids (pcDNA3) encoding a mutated (C351F) rat Gi2a, cow β1, and γ2 proteins and these DNAs were used to transfect monolayers of HEK293T cells (where ‘T’ indicates expression of the SV-40 virus large T antigen) using the calcium phosphate precipitate method. After about 60 hours, cells were harvested, membranes were prepared, aliquoted and stored at −70° C. until use.
Chain of LPA1 (P61793 whole entry): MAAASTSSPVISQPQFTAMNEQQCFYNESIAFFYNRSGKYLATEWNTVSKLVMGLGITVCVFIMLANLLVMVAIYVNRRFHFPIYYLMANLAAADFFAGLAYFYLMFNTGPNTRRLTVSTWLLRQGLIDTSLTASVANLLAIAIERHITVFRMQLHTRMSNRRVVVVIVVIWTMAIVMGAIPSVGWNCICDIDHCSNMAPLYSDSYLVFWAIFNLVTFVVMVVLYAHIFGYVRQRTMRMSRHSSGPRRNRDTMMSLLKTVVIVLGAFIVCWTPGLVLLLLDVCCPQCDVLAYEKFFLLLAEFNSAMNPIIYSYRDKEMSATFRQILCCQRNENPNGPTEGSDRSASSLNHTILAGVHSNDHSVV
(§2) The GTP[35 γS] assay was performed as described by us previously. Membranes containing 5 ug of protein were incubated in 0.1 ml GTP-binding buffer (in mM: HEPES 50, NaCl 100, MgCl2 10, pH7.5) containing […], […], 0.1 nM GTP[35 γS] (1200 Ci/mmol), and indicated lipid(s) for 30 minutes at 30° C. Samples were analyzed for membrane-bound radionuclide using a Brandel Cell Harvester (Gaithersburg, Md.).
(§3) The X-intercept of the linear transformation is equal to the inverse log of the κ1.
(§4) Membranes prepared from these cells are used to measure GTPγ[^35S] binding as a function of test compound concentration. The resulting dose-response curves provide relative potency (EC50) and efficacy, (Emax) for the test compounds.
(In general: GTPγS is a poorly hydrolysed GTP analogue; its binding reports G protein activation.)

A further assay addresses LPA2 (Homo sapiens, UniProt Q9HBW0). Description: GTP[γ35S] binding, LPA2 transfected HEK293T cell membranes. In kind it is biochemical. On the set-up: expressed in transfected cells; host or cells: HEK293T (transient, calcium phosphate). The note with it: for EC50: agonist, GTP[γ35S] binding. How it is done:
as §1, §2, §3, §4

The target of a further assay is T1, LPA3 (Homo sapiens, UniProt Q9UBY5).
T1 sequence (Q9UBY5 1-353): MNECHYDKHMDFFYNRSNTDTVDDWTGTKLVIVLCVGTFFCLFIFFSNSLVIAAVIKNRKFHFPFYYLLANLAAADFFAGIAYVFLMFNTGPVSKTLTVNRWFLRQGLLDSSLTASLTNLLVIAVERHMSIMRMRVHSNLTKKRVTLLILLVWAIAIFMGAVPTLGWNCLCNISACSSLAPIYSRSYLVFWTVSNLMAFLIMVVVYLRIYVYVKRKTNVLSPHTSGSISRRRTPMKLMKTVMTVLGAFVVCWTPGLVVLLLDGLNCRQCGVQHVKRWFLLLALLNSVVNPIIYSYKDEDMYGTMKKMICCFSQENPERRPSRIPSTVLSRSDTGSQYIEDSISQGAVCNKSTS
Description: GTP[γ35S] binding, LPA3 transfected HEK293T cell membranes. It counts as biochemical. On the set-up: expressed in transfected cells; host or cells: HEK293T (transient, calcium phosphate). The conditions noted are these: for EC50: agonist, GTP[γ35S] binding. How it is done:
as §1, §2, §3, §4

In a further assay the test system is LPA receptors. Description: Whole cell assays of calcium mobilization or inhibition of cAMP accumulation (agonist activity). It counts as cell-based. As for the experimental part: Assays for cAMP accumulation were conducted on populations of 5×10^5 cells stimulated with […] in the presence of the phosphodiesterase inhibitor isomethylbutylxanthine (IBMX) for 15 minutes at 30° C. cAMP was measured by automated radioimmunoassay.
A FLIPR™ (Molecular Devices, Inc.) was used to measure intracellular calcium in A431 and HEK293T cells. A431 cells were seeded (−50,000 cells/well) in 96-well clear bottom black microplates (Corning Costar Corp., Cambridge, Mass.) and left overnight in CO2 incubator at 37° C. HEK293T cells were treated likewise, but seeded onto poly D-lysine coated microplates (Becton Dickinson, Franklin Lakes, N.J.). A431 cells were dye-loaded with 4 μM Fluo-3 AM ester (Molecular Probes Inc., Eugene, Oreg.) in a loading buffer (1×HBSS buffer, pH 7.4, containing 20 mM HEPES, 0.1% BSA, and 2.5 mM probenecid) for 1 hour at 37° C. Cells were then washed four times with the loading buffer and exposed in the FLIPR™ to sets of compounds. HEK293T cells were loaded with 2 μM Fluo-4 AM ester (Molecular Probes Inc., Eugene, Oreg.) in the same loading buffer without probenecid for 30 minutes and washed four times before being exposed to compounds in the FLIPR™. […]
The same activity was determined with human LPA1 using a recombinant baculovirus-infected insect Sf9 cell membrane preparation.

Chain of LPA2 (Q9HBW0 whole entry): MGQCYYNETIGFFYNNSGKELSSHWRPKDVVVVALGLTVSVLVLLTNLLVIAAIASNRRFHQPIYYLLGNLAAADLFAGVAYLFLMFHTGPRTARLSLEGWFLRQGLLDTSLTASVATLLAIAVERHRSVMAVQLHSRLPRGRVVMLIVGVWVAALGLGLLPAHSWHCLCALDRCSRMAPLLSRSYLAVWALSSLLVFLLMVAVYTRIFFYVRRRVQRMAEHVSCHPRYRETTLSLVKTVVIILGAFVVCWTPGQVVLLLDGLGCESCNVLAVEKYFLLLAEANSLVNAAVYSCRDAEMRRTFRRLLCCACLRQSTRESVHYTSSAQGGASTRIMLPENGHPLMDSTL

A word on the Emax: it is the maximal effect, on the per cent scale that the assay sets. The term EC50 denotes the concentration that produces a half-maximal response. In the case of `CCCCCCCC/C=C\CCCCCCCC(=O)N[C@H](CO)COP(=O)(O)O` [VPC31143], the Emax at LPA1 worked out at 161%; on LPA2, 105%; on LPA3, 107%. For the same compound, the EC50 at LPA1 stood at 0.0079 µM; at LPA2, 0.116 µM; on LPA3 it was 0.322 µM. In addition, the “Potency at LPA1 relative to LPA” value at LPA1 is on record as “more potent than 1-oleoyl LPA”.
In the case of `CCCCCCCC/C=C\CCCCCCCC(=O)N[C@H](CC)COP(=O)(O)O` [VPC12109], the figures for the Emax on LPA1, at LPA2 and at LPA3 were 66.8%, 92.6% and 83.5%, respectively. Besides, the EC50 was determined as 0.0358 µM at LPA1, 0.162 µM on LPA2 and 1.08 µM on LPA3.
On to `CCCCCCCC/C=C\CCCCCCCC(=O)N[C@@H](COP(=O)(O)O)C(=O)OC` [VPC31139], for which the values for the Emax on LPA1, at LPA2 and on LPA3 were 66.2%, 91.3% and 84.4%, respectively. In addition, the EC50 at LPA1 is 0.0185 µM; at LPA2, 0.0292 µM; at LPA3, 1.48 µM.
For the compound `CCCCCCCC/C=C\CCCCCCCC(=O)N[C@@H](C)COP(=O)(O)O` [VPC12101], the Emax was 48.1% at LPA1, 6.9% at LPA2 and 9.7% at LPA3. In addition, the results for the EC50 on LPA1, at LPA2 and at LPA3 were 2.9 µM, above 5 µM and above 5 µM, respectively.
Take `CCCCCCCC/C=C\CCCCCCCC(=O)N[C@H](COP(=O)(O)O)Cc1ccccc1` [VPC12255]: the EC50 on LPA1, at LPA2 and on LPA3 was above 5 µM throughout.
For `CCCCCCCC/C=C\CCCCCCCC(=O)N[C@H](C)COP(=O)(O)O` [VPC12086], on LPA1, the maximal response (Emax) was found to be 108%; the EC50 worked out at 0.0034 µM; the “Potency at LPA1 relative to LPA” value was “more potent than 1-oleoyl LPA; also recorded: more potent and efficacious than LPA”. For the same compound, at LPA2, the Emax turned out to be 95.2% and the EC50 was determined as 0.0183 µM. At LPA3, the Emax turned out to be 93.4% and the EC50 is 0.113 µM.
As to `CCCCCCCC/C=C\CCCCCCCC(=O)N[C@@H](COP(=O)(O)O)Cc1ccc(OCc2ccc(CCCCC)cc2)cc1` [VPC31162], on LPA1 (compared to LPA), the “Agonist activity/efficacy at LPA1” value is reported as “agonist”. Further, at LPA2, the “Antagonism of LPA-induced GTP[γ35S] binding at LPA2” value is listed as “antagonist activity”. The “Agonist activity/efficacy at LPA3” value at LPA3 (compared to LPA) is “agonist”.
Take `CCCCCCCC/C=C\CCCCCCCC(=O)N[C@@H](CO)COP(=O)(O)O` [VPC31144]: the Emax on LPA1 was determined as 91.1%; on LPA2, 77.3%. Besides, the results for the EC50 on LPA1, at LPA2 and at LPA3 were above 5 µM, 2.64 µM and 4.35 µM, respectively.
As to `CCCCCCCC/C=C\CCCCCCCC(=O)N[C@@H](COP(=O)(O)O)C(C)C` [VPC12098], the maximal effect (Emax) at LPA1 was found to be 51%; on LPA2, 85.8%; at LPA3 it was 45.3%. Besides, the half-maximal effective concentration (EC50) at LPA1 was 0.0738 µM; on LPA2, 0.799 µM; at LPA3, 3.81 µM.
Consider `CCCCCCCC/C=C\CCCCCCCC(=O)N[C@H](COP(=O)(O)O)C(C)C` [compound 40105], for which the maximal response (Emax) on LPA1 is 14.8%; at LPA2, 27.6%; at LPA3, 27.7%. Besides, the concentration giving a half-maximal response (EC50) at LPA1, at LPA2 and at LPA3 was above 5 µM throughout.
Take “1-acyl, 2-hydroxyl-sn-glycerol-3-phosphate [LPA, reference compound]”: the EC50 on LPA2 worked out at 0.0068 µM; on LPA3 it was 0.263 µM. On LPA3 (LPA = 100), the “LPA3 Emax” value was determined as 100.
Consider `CCCCCCCC/C=C\CCCCCCCC(=O)N[C@@H](CN)COP(=O)(O)O` [VPC12048], for which the maximal effect (Emax) at LPA1 is 9.4%; on LPA2, 36.4%; at LPA3 it was 3.8%. For the same compound, the EC50 at LPA1, at LPA2 and on LPA3 was above 5 µM in each case.
Turning to `CCCCCCCC/C=C\CCCCCCCC(=O)N[C@H](COP(=O)(O)O)C(=O)OC` [VPC31180], the Emax at LPA1 is 50.6%; at LPA2 it was 60.2%; at LPA3, 3.8%. Also, the concentration for a half-maximal effect (EC50) was 1.21 µM on LPA1, 3.46 µM on LPA2 and above 5 µM on LPA3.
Turning to `CCCCCCCC/C=C\CCCCCCCC(=O)N[C@@H](CC)COP(=O)(O)O` [VPC12115], the Emax on LPA1 was determined as 62.3%; at LPA2, 85.6%; at LPA3, 89.3%. In addition, the EC50 at LPA1 is 1.58 µM; at LPA2 it was 4.28 µM; on LPA3, 4.98 µM.
On to `CCCCCCCC/C=C\CCCCCCCC(=O)N[C@H](CN)COP(=O)(O)O` [VPC12178], for which, on LPA1, the maximal response (Emax) stood at 98.7%, it took 0.0049 µM to reach a half-maximal effect (EC50) and the “Potency at LPA1 relative to LPA” value is “more potent than 1-oleoyl LPA”. In addition, on LPA2, the Emax is 103% and the EC50 is 0.0503 µM. Besides, at LPA3, the Emax stood at 103% and the EC50 is 0.684 µM.
Regarding `CCCCCCCC/C=C\CCCCCCCC(=O)N[C@@H](COP(=O)(O)O)Cc1ccccc1` [VPC12084], the “Antagonism of LPA-induced GTP[γ35S] binding at LPA1” value on LPA1 is given as “did block LPA activity”. In addition, the figures for the Emax on LPA1, on LPA2 and on LPA3 were 23.7%, 97% and 78.7%, respectively. The EC50 came out at 0.0384 µM on LPA1, 0.268 µM at LPA2 and 0.351 µM on LPA3. For the same compound, the “Agonist activity in whole cell assays” value in the assay on LPA receptors is given as “appreciable agonist activity”.
